Results taken from ChEMBL document CHEMBL1201862, “PubChem BioAssay data set” (2004).
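Step 1: Grow cells in 96-well plates. Step 2: Expose to compound for 48 hours at 5 concentrations. Step 3: Interpolate endpoints linearly; if unreached, use highest concentration. GI50: concentration for 50% inhibition of growth.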 The source made the active and inactive calls. Cut-off read from the data, not from the text of the source: active = GI50 up to about 1.1 µM and inactive = higher.

Key:
Experiment in all cases: DTP human tumour cell line panel, 48 h
BT-549 = test system: BT-549
EKVX = test system: EKVX
HCT-116 = test system: HCT-116
HOP-62 = test system: HOP-62
LOX IMVI = test system: LOX IMVI
MCF7 = test system: MCF7
NCI-H460 = test system: NCI-H460
NCI/ADR-RES = test system: NCI/ADR-RES
OVCAR-3 = test system: OVCAR-3
OVCAR-4 = test system: OVCAR-4
SF-295 = test system: SF-295
SF-539 = test system: SF-539
SK-MEL-28 = test system: SK-MEL-28
SK-OV-3 = test system: SK-OV-3
SN12C = test system: SN12C
SNB-75 = test system: SNB-75
SR = test system: SR
T47D = test system: T47D
UACC-257 = test system: UACC-257
UO-31 = test system: UO-31

| Structure (SMILES) | GI50 (BT-549) | GI50 (EKVX) | GI50 (HCT-116) | GI50 (HOP-62) | GI50 (LOX IMVI) | GI50 (MCF7) | GI50 (NCI-H460) | GI50 (NCI/ADR-RES) | GI50 (OVCAR-3) | GI50 (OVCAR-4) | GI50 (SF-295) | GI50 (SF-539) | GI50 (SK-MEL-28) | GI50 (SK-OV-3) | GI50 (SN12C) | GI50 (SNB-75) | GI50 (SR) | GI50 (T47D) | GI50 (UACC-257) | GI50 (UO-31) |
| --- | --- | --- | --- | --- | --- | --- | --- | --- | --- | --- | --- | --- | --- | --- | --- | --- | --- | --- | --- | --- |
| CN(C)c1ccc(/C(F)=C(F)/C(F)=C(F)/C(F)=C(\F)c2ccc(Br)cc2)cc1 | 31.8 µM (inactive) | 22.9 µM (inactive) | 5.33 µM (inactive) | 37.2 µM (inactive) | 19.8 µM (inactive) | 9.46 µM (inactive) | 26.2 µM (inactive) | 6.4 µM (inactive) | 9.38 µM (inactive) | 23.9 µM (inactive) | 6.98 µM (inactive) | 33 µM (inactive) | > 100 µM (inactive) | 30.1 µM (inactive) | 6.61 µM (inactive) | 27.2 µM (inactive) | 5 µM (inactive) | 34.7 µM (inactive) | > 74.1 µM (inactive) | 25.1 µM (inactive) |
| CC1OC(OC2C(CO)OC(O[C@H]3CC[C@@]4(C)C(=CC[C@H]5[C@@H]6C[C@@H]7O[C@](O)(CC[C@H](CO)COC8OC(CO)C(O)C(O)C8O)[C@@H](C)[C@@H]7[C@@]6(C)CC[C@@H]54)C3)C(OC3OC(C)C(O)C(O)C3O)C2O)C(O)C(O)C1O (stereo not given in full) | > 100 µM (inactive) | > 100 µM (inactive) | > 100 µM (inactive) | > 100 µM (inactive) | > 100 µM (inactive) | > 100 µM (inactive) | > 100 µM (inactive) | 91.4 µM (inactive) | > 100 µM (inactive) | > 100 µM (inactive) | > 100 µM (inactive) | > 100 µM (inactive) | > 100 µM (inactive) | > 100 µM (inactive) | > 100 µM (inactive) | > 100 µM (inactive) | > 100 µM (inactive) | > 100 µM (inactive) | > 100 µM (inactive) | > 100 µM (inactive) |
| N[C@@H]1c2c(Br)sc(Br)c2C(=O)[C@H]1Br | 19.1 µM (inactive) | 34.4 µM (inactive) | 17.3 µM (inactive) | 50.4 µM (inactive) | 15.7 µM (inactive) | 36.7 µM (inactive) | 57.1 µM (inactive) | 22.2 µM (inactive) | 30.6 µM (inactive) | 27.2 µM (inactive) | > 70.6 µM (inactive) | > 63.1 µM (inactive) | 28.5 µM (inactive) | > 100 µM (inactive) | 24.9 µM (inactive) | > 100 µM (inactive) | 16.1 µM (inactive) | 30.2 µM (inactive) | 18.6 µM (inactive) | 27.9 µM (inactive) |
| O=S(=O)(O)C1CCC(O)C2NCCCC21 (stereo not given) | > 100 µM (inactive) | > 100 µM (inactive) | > 100 µM (inactive) | > 100 µM (inactive) | > 100 µM (inactive) | > 100 µM (inactive) | > 100 µM (inactive) | > 100 µM (inactive) | > 100 µM (inactive) | > 100 µM (inactive) | > 100 µM (inactive) | > 100 µM (inactive) | > 100 µM (inactive) | > 100 µM (inactive) | > 100 µM (inactive) | > 100 µM (inactive) | > 100 µM (inactive) | > 100 µM (inactive) | > 100 µM (inactive) | > 100 µM (inactive) |
| C[C@H](N)C(=O)N[C@@H]1[C@H]2C(=C(O)C[C@@H](O)[C@@H]2O)C(=O)O[C@]1(C)C(Cl)Cl [BACTOBOLIN] | 0.165 µM (active) | 0.207 µM (active) | 0.145 µM (active) | 0.152 µM (active) | 0.0946 µM (active) | 0.146 µM (active) | 0.111 µM (active) | 3.36 µM (inactive) | 0.34 µM (active) | 0.133 µM (active) | 0.18 µM (active) | 0.229 µM (active) | 0.234 µM (active) | 0.271 µM (active) | 0.164 µM (active) | 0.185 µM (active) | 0.0776 µM (active) | 0.209 µM (active) | 0.378 µM (active) | 0.979 µM (active) |
